Some test systems named below: SR leukemia; U251 CNS; SK-OV-3 ovarian; MCF7 breast; BT-549 breast; UACC-257 melanoma; HT29 colon; RXF 393 renal; OVCAR-8 ovarian; DU-145 prostate.
Holding throughout (assay): inhibition of tumour cell growth, NCI panel, 48 h

Consider 14 molecules from PubChem BioAssay (NCI).

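All cell lines were grown in 96-well plates and treated with compound for 48 hours. TGI: total growth inhibition.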

In the case of `Cc1nccn1S(=O)(=O)c1ccc(Cl)cc1`, the TGI in the test with SR leukemia, in the test on U251 CNS, in the test with SK-OV-3 ovarian, with MCF7 breast, with BT-549 breast and in the test with UACC-257 melanoma was over 100 µM throughout. Also, the TGI with HT29 colon, with RXF 393 renal, in the test with OVCAR-8 ovarian and in the test with DU-145 prostate was over 100 µM throughout.
For the molecule `CCCCOc1ccc(S(=O)(=O)/N=C(\NO)Nc2ccc(Cl)cc2)cc1`, the TGI in the test on SR leukemia was 67.3 µM; in the test on U251 CNS, 30.8 µM; in the test on MCF7 breast it was 28.8 µM; in the test on BT-549 breast it was 26.7 µM; in the test on UACC-257 melanoma, 30.4 µM; in the test with HT29 colon, 32.6 µM. The TGI in the test with RXF 393 renal was determined as 30.2 µM; with OVCAR-8 ovarian it was 36.2 µM; with DU-145 prostate, 30.1 µM.
Turning to `O=c1[nH]c2ccc(C(F)(F)F)cc2nc1C(F)(F)F`, the TGI with SR leukemia is over 100 µM; in the test on U251 CNS, over 100 µM; in the test with SK-OV-3 ovarian it was 85.7 µM; in the test on MCF7 breast it was 80.3 µM; in the test with BT-549 breast, 89.8 µM; in the test on UACC-257 melanoma it was 64.4 µM. Further, the TGI with HT29 colon was over 100 µM; with RXF 393 renal, 36.3 µM; in the test with OVCAR-8 ovarian it was 77 µM; with DU-145 prostate, over 100 µM.
`CC(C)=CCC[C@@H](C)C1=C(O)C(Nc2ccccc2)=C(C)C(=O)C1=O`: the TGI is over 100 µM in the test on SR leukemia; over 100 µM in the test with U251 CNS; over 96.2 µM with SK-OV-3 ovarian; over 86 µM with MCF7 breast; over 100 µM in the test with BT-549 breast; over 100 µM in the test on UACC-257 melanoma. Also, the TGI with HT29 colon is over 96.3 µM; in the test with RXF 393 renal it was 60.7 µM; with OVCAR-8 ovarian, over 100 µM; with DU-145 prostate it was over 74.2 µM.
Take `CC(=O)c1c(O)cc(O)c(-c2c(C)cc(O)c3c2C(=O)c2cccc(O)c2C3=O)c1O`: the TGI is 53.8 µM in the test with SR leukemia; 27.2 µM in the test with U251 CNS; 27.4 µM in the test on SK-OV-3 ovarian; 29.8 µM in the test on MCF7 breast; 35.3 µM in the test on BT-549 breast; 40 µM with UACC-257 melanoma. In addition, the TGI in the test with HT29 colon was found to be 31.5 µM; in the test on OVCAR-8 ovarian, 49.5 µM; in the test on DU-145 prostate, 30.2 µM.
As for `Cc1cc(O)c(C(C)C)cc1C(=S)Nc1ccc(Cl)cc1`, the TGI came to 20.4 µM in the test with SR leukemia; 27.8 µM in the test on U251 CNS; 36.4 µM in the test on SK-OV-3 ovarian; 22.9 µM in the test with MCF7 breast; 30.7 µM in the test on BT-549 breast; 23.8 µM with UACC-257 melanoma. Further, the TGI in the test on HT29 colon worked out at 27.9 µM; in the test on OVCAR-8 ovarian it was 24.2 µM; with DU-145 prostate, 31.5 µM.
For `CC(C)(C)OC(=O)NNCC(O)COc1ccccc1` (centres undefined), the TGI with SR leukemia, with U251 CNS, in the test with SK-OV-3 ovarian, with MCF7 breast, with BT-549 breast and with UACC-257 melanoma was over 100 µM each time. Besides, the TGI in the test with HT29 colon, in the test with RXF 393 renal, in the test with OVCAR-8 ovarian and with DU-145 prostate was over 100 µM in each case.
In the case of `Fc1ccc2c(c1)nc1n2C(c2c(F)cccc2F)SC1` (centres undefined), the TGI in the test on SR leukemia is 58.5 µM; in the test with U251 CNS it was over 100 µM; with SK-OV-3 ovarian, over 100 µM; in the test on MCF7 breast it was over 100 µM; in the test on BT-549 breast, over 100 µM; in the test with UACC-257 melanoma, over 100 µM. For the same molecule, the TGI in the test with HT29 colon, in the test with RXF 393 renal, in the test on OVCAR-8 ovarian and in the test with DU-145 prostate was over 100 µM throughout.
For the molecule `COc1ccc(C2=Nc3c(nc(SC)[nH]c3=O)NC(c3ccccc3)C2)cc1` (centres undefined), the TGI in the test on SR leukemia was over 100 µM; in the test on U251 CNS, 36.4 µM; with SK-OV-3 ovarian, 51.9 µM; in the test on MCF7 breast, 41.8 µM; in the test on BT-549 breast, 66.1 µM; with UACC-257 melanoma it was 57.4 µM. In addition, the TGI with HT29 colon stood at 49.8 µM; in the test on RXF 393 renal, 39 µM; in the test with OVCAR-8 ovarian it was 40.7 µM; in the test with DU-145 prostate it was 82.7 µM.
Take `COc1cc2nc(-c3cccs3)nc(N3C(c4cc(OC)c(OC)c(OC)c4)=NNC(=O)c4ccccc43)c2cc1OC`: the TGI with SR leukemia was over 100 µM; with U251 CNS it was 50.4 µM; in the test with SK-OV-3 ovarian, over 100 µM; with MCF7 breast, over 100 µM; in the test on BT-549 breast, 39.6 µM; in the test with UACC-257 melanoma, over 100 µM. In addition, the TGI with HT29 colon is over 100 µM; in the test on OVCAR-8 ovarian it was over 100 µM; in the test on DU-145 prostate, 91.1 µM.
With `CCc1n[nH]c(=O)[nH]1`, the TGI in the test with SR leukemia, in the test with SK-OV-3 ovarian, in the test on MCF7 breast, with BT-549 breast, with UACC-257 melanoma and in the test on HT29 colon was over 100 µM in each case. Also, the TGI with RXF 393 renal, with OVCAR-8 ovarian and in the test with DU-145 prostate was over 100 µM throughout.
For the molecule `Nc1ccn(CC(O)c2cc3ccccc3[nH]2)c(=O)n1` (centres undefined), the TGI with SR leukemia, in the test with U251 CNS, in the test with SK-OV-3 ovarian, in the test with MCF7 breast, in the test with BT-549 breast and in the test on UACC-257 melanoma was over 100 µM throughout. Moreover, the TGI in the test on HT29 colon, in the test on RXF 393 renal, in the test on OVCAR-8 ovarian and in the test with DU-145 prostate was over 100 µM in each case.
As to `CNC(=O)C1OC(n2cnc3c(NCc4cccc(I)c4)nc(Cl)nc32)C(O)C1O` (centres undefined), the TGI with SR leukemia came out at 59.6 µM; in the test on U251 CNS, 40.4 µM; with SK-OV-3 ovarian, 35 µM; in the test on MCF7 breast it was 25.4 µM; with BT-549 breast it was 28.5 µM; in the test with UACC-257 melanoma, 23.8 µM. Further, the values for the TGI in the test with RXF 393 renal, with OVCAR-8 ovarian and in the test on DU-145 prostate were 29.6 µM, 26.7 µM and 50.4 µM, respectively.
For the molecule `CC1=NN2CCC(=O)N=C2S1`, the TGI with SR leukemia, in the test on U251 CNS, with SK-OV-3 ovarian, in the test with MCF7 breast, with BT-549 breast and with UACC-257 melanoma was over 100 µM throughout. The TGI with HT29 colon, with RXF 393 renal, in the test on OVCAR-8 ovarian and in the test on DU-145 prostate was over 100 µM each time.
